Converted amounts (≈) assume the structure as drawn. “And” between values parts separate entries of the source, which are not always exact repeats. Equal entries are not always repeated.
How the values were obtained:
Alternaria solani = assay: in vitro 96-well micro-titration test on Alternaria solani spores; type: cell-based
Fusarium graminearum = assay: microbe, parasite or virus in culture; type: cell-based
Pythium ultimum = assay: in vitro test on P. ultimum
Protocol: The evaluations were performed with a 96-well micro-titration test to evaluate the in vitro fungicidal activity of each solution.
Three repetitions (wells) were carried out. The value of the concentration making it possible to inhibit the growth of each pathogen (EC50) to 50% was determined using the optical density measurement.

[1] = test system: Septoria tritici (Zymoseptoria tritici); assay: in vitro 96-well micro-titration test on Septoria tritici / Zymoseptoria tritici; type: cell-based
Plasmopara viticola = assay: in vitro antifungal action of single ingredients on Plasmopara viticola; type: cell-based
Text: In Vitro Results Showing the Syngergistic Action of Yucca Juice with the Other Compounds of the Composition According to the Invention on A. solani, Z. tritici, and Plasmopara viticola,
The following tables show in vitro the synergistic antifungal action between yucca juice and the other compounds of the composition of the invention on various pathogens. The concentrations given are as a mass %. The solutions tested as aqueous solutions.
Mo denotes sodium molybdate, Bo denotes boron ethanolamine.

Oc1ccc(/C=C/c2cc(O)cc(O)c2)cc1 [resveratrol, 5-[(E)-2-(4-hydroxyphenyl)-ethenyl]benzene-1,3-diol]
inhibition (%) of A. solani growth (Alternaria solani; 0.0064 μg/ml or ppm in water): 6.20%
inhibition (%) of A. solani growth (Alternaria solani; 0.032 μg/ml or ppm in water): 13.60%
inhibition (%) of A. solani growth (Alternaria solani; 0.16 μg/ml or ppm in water): 13.70%
inhibition (%) of A. solani growth (Alternaria solani; 0.8 μg/ml or ppm in water): 16.10%
inhibition (%) of A. solani growth (Alternaria solani; 4 μg/ml or ppm in water): 11.20%
inhibition (%) of A. solani growth (Alternaria solani; 20 μg/ml or ppm in water): 28.70%
inhibition (%) of A. solani growth (Alternaria solani; 100 μg/ml or ppm in water): 54.7%
inhibition of Fusarium graminearum (Fusarium graminearum; 0.0064 μg/ml or ppm): 0.30%
inhibition of Fusarium graminearum (Fusarium graminearum; 0.032 μg/ml or ppm): −2.90%
inhibition of Fusarium graminearum (Fusarium graminearum; 0.16 μg/ml or ppm): −3.90%
inhibition of Fusarium graminearum (Fusarium graminearum; 0.8 μg/ml or ppm): −1.60%
inhibition of Fusarium graminearum (Fusarium graminearum; 4 μg/ml or ppm): −3.80%
inhibition of Fusarium graminearum (Fusarium graminearum; 20 μg/ml or ppm): 18.20%
inhibition of Fusarium graminearum (Fusarium graminearum; 100 μg/ml or ppm): 53.30%
inhibition of Fusarium graminearum (Fusarium graminearum; 100 μg/ml or ppm, listed as Resveratrol (trans)): more than 50%
EC95 (μg/ml or ppm) (Fusarium graminearum; Fusarium graminearum, Table 9): >100 μg/ml or ppm
EC50 (Fusarium graminearum; Fusarium graminearum, read-out: EC50 (μg/ml or ppm)): 29.5 µg/mL (≈ 129 µM)
inhibition of P. ultimum (Pythium ultimum; 0.0064 μg/ml or ppm): −8.20%
inhibition of P. ultimum (Pythium ultimum; 0.032 μg/ml or ppm): −0.30%
inhibition of P. ultimum (Pythium ultimum; 0.16 μg/ml or ppm): 0.00%
inhibition of P. ultimum (Pythium ultimum; 0.8 μg/ml or ppm): −1.70%
inhibition of P. ultimum (Pythium ultimum; 4 μg/ml or ppm): 23.30%
inhibition of P. ultimum (Pythium ultimum; 20 μg/ml or ppm): 72.40%
inhibition of P. ultimum (Pythium ultimum; 100 μg/ml or ppm): 100% and 101.30%
EC50 (Pythium ultimum; Globisporangium ultimum, read-out: EC50 (μg/ml or ppm)): 8.89 µg/mL (≈ 38.9 µM)
EC95 (μg/ml or ppm) (Pythium ultimum; P. ultimum, Table 14): 73.85 μg/ml or ppm
% inhibition of pathogen growth (S. tritici) ([1]; 0.0064 μg/ml or ppm): 0.00%
% inhibition of pathogen growth (S. tritici) ([1]; 0.032 μg/ml or ppm): −0.40%
% inhibition of pathogen growth (S. tritici) ([1]; 0.16 μg/ml or ppm): −0.40%
% inhibition of pathogen growth (S. tritici) ([1]; 0.8 μg/ml or ppm): 0.60%
% inhibition of pathogen growth (S. tritici) ([1]; 4 μg/ml or ppm): −2.60%
% inhibition of pathogen growth (S. tritici) ([1]; 20 μg/ml or ppm): −2.00%
% inhibition of pathogen growth (S. tritici) ([1]; 100 μg/ml or ppm): 104.90%
EC50 ([1]; Zymoseptoria tritici, S. tritici, Table 12, read-out: EC50 (μg/ml or ppm)): 72 µg/mL (≈ 315 µM)
concentration showing efficacy against Septoria tritici ([1]; in vitro): 100 ppm

O=S(=O)([O-])[O-].[Mg+2] [Mg 0.5%]
EC95 (%) (Alternaria solani; A. solani, Table 22, ingredient alone in water): >10%
inhibition of A. solani, ingredient alone in water (Alternaria solani; Concentration 0.05% mass of the stated aqueous solution): −1.2%
inhibition of A. solani, ingredient alone in water (Alternaria solani; Concentration 0.50%): −8.0%
inhibition of A. solani, ingredient alone in water (Alternaria solani; Concentration 1.00%): −2.2%
inhibition of A. solani, ingredient alone in water (Alternaria solani; Concentration 2.00%): −1.8%
inhibition of A. solani, ingredient alone in water (Alternaria solani; Concentration 3.00%): −1.3%
inhibition of A. solani, ingredient alone in water (Alternaria solani; Concentration 6.00%): −2.5%
inhibition of A. solani, ingredient alone in water (Alternaria solani; Concentration 10.00%): −2.4%
in vitro activity against Plasmopara viticola, ingredient alone in water (Plasmopara viticola; Concentration 0.05%): 13.88%
in vitro activity against Plasmopara viticola, ingredient alone in water (Plasmopara viticola; Concentration 0.50%): 43.93%
in vitro activity against Plasmopara viticola, ingredient alone in water (Plasmopara viticola; Concentration 1.00%): 53.33%
in vitro activity against Plasmopara viticola, ingredient alone in water (Plasmopara viticola; Concentration 2.00%): 69.80%
in vitro activity against Plasmopara viticola, ingredient alone in water (Plasmopara viticola; Concentration 3.00%): 76.51%
in vitro activity against Plasmopara viticola, ingredient alone in water (Plasmopara viticola; Concentration 6.00%): 91.75%
in vitro activity against Plasmopara viticola, ingredient alone in water (Plasmopara viticola; Concentration 10.00%): 95.94%
inhibition of Z. tritici, ingredient alone in water ([1]; Concentration 0.05%): 0.7%
inhibition of Z. tritici, ingredient alone in water ([1]; Concentration 0.50%): 0.9%
inhibition of Z. tritici, ingredient alone in water ([1]; Concentration 1.00%): 2.3%
inhibition of Z. tritici, ingredient alone in water ([1]; Concentration 2.00%): −2.9%
inhibition of Z. tritici, ingredient alone in water ([1]; Concentration 3.00%): −0.1%
inhibition of Z. tritici, ingredient alone in water ([1]; Concentration 6.00%): 11.3%
EC95 (%) ([1]; Z. tritici, Table 23, ingredient alone in water): >10%

Reference: patent US20260076372A1, “SPRAYABLE ANTIFUNGAL COMPOSITION FOR USE IN THE FIELD OF AGRICULTURE, AND ASSOCIATED METHOD AND USE” (GAIAGO, priority 2022, published 2026)
